The data set is described as follows: Water solubility of cholesterol at 37° C. determined by HPLC. It is filed as physicochemical. Here is the method:
Reference is made to two chemical compounds: pure cholesterol (C-pure), and modified cholesterol (C-mod). C-mod is made by partial thermal degradation of C-pure. As a consequence, C-mod is structurally very similar, but not identical, to C-pure. In the first of three steps to this example, a quantity of C-mod is produced by heating 10 grams of dry C-pure in the presence of oxygen for 30 minutes at 134° C., which is a temperature that is 15° below the melting point of the pure substance. In a second step to this example, 10 mg of C-pure is added to one liter of distilled water. The resulting suspension is then stirred at 50° C. for two hours, followed by stirring at 37° C. for 6 hours. The concentration of solute in solution at 37° is then determined by an HPLC analytical method. […] In the third and final step to this example, the process of the second step is repeated with 10 mg of C-pure in one liter of distilled water, and 10 mg of C-mod is also added to the initial suspension. In this case, HPLC determination of the concentration of C-pure in the supernatant solution results in a finding of 1.2 mg/100 mL. […] This increase in apparent solubility of C-pure is considered to be a consequence of the selective inhibition of crystal nucleation and growth, due to the presence of molecules that are similar to but not identical to those of the solute.

Converted amounts (≈) assume the structure as drawn.

Regarding `CC(C)CCC[C@@H](C)[C@H]1CC[C@H]2[C@@H]3CC=C4C[C@@H](O)CC[C@]4(C)[C@H]3CC[C@]12C` [C-pure, cholesterol], the “concentration of C-pure in the supernatant solution (apparent solubility)” value (10 mg C-pure plus 10 mg C-mod in one liter distilled water, 37° C., HPLC specific to C-pure) is 1.2 mg/100 mL. Besides, for the setting “thermodynamic from solid, 10 mg C-pure in one liter distilled water, stirred 50° C. 2 h then 37° C. 6 h, HPLC, no C-mod”, the thermodynamic solubility was found to be 4.5 µg/mL (≈ 11.6 µM).

The record behind these values is patent US20020132758A1, “Method for identifying compounds to treat medical pathologies associated with molecular crystallization” (priority 2001, published 2002).
